Here are results for nine molecules from PMC4398458, “Reversible Linkage of Two Distinct Small Molecule Inhibitors of Myc Generates a Dimeric Inhibitor with Improved Potency That Is Active in Myc Over-Expressing Cancer Cell Lines” (PLoS ONE, 2015).

Some results are limits rather than exact numbers.

One series has as its target T1, Myc:Max interaction (Homo sapiens, UniProt P01106).
T1 construct: purchased Origene (Myc); Sino Biologicals (Max)
The series is described as follows: Cell-free Myc:Max ELISA. Format: biochemical. Particulars: average with standard deviation; combinations as equimolar (1:1) titrations, concentration of each monomer; read-out: ELISA (IC50), inhibition of cell-free MYC-MAX heterodimer formation. How it is done: High binding 96-well plates were coated with GST-conjugated full-length Max protein (Sino Biologicals) at 1ng/μL in 100μl of PBS overnight at 4°C. The plate was washed 4x 200 μl/well with PBS and blocked in 200 μl/well of 5% nonfat dry milk in PBS for 2 hours at room temperature. […] Compounds were serially diluted in 100% DMSO and then sequentially diluted […] into the Myc solution before incubation for one hour at room temperature. For internal consistency, final DMSO concentrations were kept at 2%. The blocked plate was washed 4x 200μl/well with Buffer A, before addition of 100 μl of the Myc compound mixture. Plates were incubated for four hours at RT, and washed 4x 200 μl Buffer A/well. Anti-Myc antibody (Cell Signaling) was diluted 1:1000 in 5% nonfat dry milk in Buffer A. 100 μL/well diluted primary antibody was added to each well and incubated for one hour at room temperature. Plates were washed 4x 200 μl/well Buffer A. HRP-conjugated goat anti-rabbit antibody (GE Healthcare) was diluted 1:5000 in 5% nonfat dry milk in Buffer A. 100 μL/well diluted secondary antibody was added to each well and incubated for thirty minutes at room temperature. The plates were washed 4x 200 μL/well Buffer A. 50 μL/well of FEMTO chemiluminescent reagent (Thermo Scientific) was added, and luminescence was immediately read on a Victor X5 plate reader (PerkinElmer) with a 0.1 sec integration time. IC50s were generated through non-linear fitting of data with prism (GraphPad).
We next asked whether the binding of these dimers to Myc could disrupt the interaction with its transcriptional partner Max. We developed an ELISA using purified Myc and Max protein that allowed us to measure effects on Myc:Max binding. The ELISA plate was initially coated with Max protein and the compounds pre-incubated with Myc protein prior to addition to the Max-coated plate. After extensive washing, Myc binding to Max was detected using an anti-Myc antibody. […] We observe similar effects for the dimeric inhibitor E08+N11 (Table 1).

Series [1] deals with T2, His-tagged bHLH-LZ domain of human Myc protein (aa353-439) (Homo sapiens, UniProt P01106).
T2 construct: human Myc protein (aa353-439, Cayman Chemicals, Ann Arbor, MI); purchased Cayman Chemicals
The series is described as follows: Surface Plasmon Resonance binding to immobilized Myc. The settings on record: average KD, equilibrium fit, 25°C; combinations as equimolar titrations; read-out: SPR (Kd), direct MYC binding. How it is done: All SPR experiments were performed on a Bio-Rad XPR36 instrument at 25°C. His-tagged bHLH-LZ domain of human Myc protein (aa353-439, Cayman Chemicals, Ann Arbor, MI) was immobilized in running buffer (20 mM Na-phosphate, pH 7.5, 300 mM NaCl, 4 mM KCl,. 05% Tween20) in the absence of DMSO at 25μL/min for 400 seconds on Bio-Rad HTE (Ni-NTA) chips with a resulting RU value of about 4500 after immobilization. Compound binding was analyzed in the same running buffer with a final DMSO concentration of 2%. Compounds were injected at 30μL/min for 180 seconds with a dissociation time of 300 seconds. Injections consisted of 5 concentrations of compounds plus a blank channel for reference that flowed over all immobilized ligands in a matrix format. Regeneration steps were not required due to the rapid dissociation of compounds. Equilibrium fits were performed with the ProteOn software after inter-spot and reference channel subtractions.
We next analyzed whether these dimeric inhibitors could directly bind to Myc. To do this we developed a Surface Plasma Resonance (SPR) assay to compare the binding affinities of the monomers to that of the dimeric inhibitors. We immobilized the bHLHZip domain of Myc to the surface of a Ni-NTA chip via a His-tag and measured binding affinities for the monomers or dimers. […] We observed similar data with the E08+N11 dimer.

For another series, the system named is Daudi cells. The series can be described thus: Cell proliferation / viability assay and Bliss synergy analysis. Type of series: cell-based. Particulars: concentrations up to 30 μM, 3 days. How it is done: K562 (CCL-243), Daudi (CCL-213), Raji (CCL-86) and MV4-11(CCL-9591) cells were purchased directly from American Type Culture Collection (Manassas, VA) and routinely cultured under recommended conditions. Growth and proliferation was determined by use of Cell Titer 96 Aqueous One Solution (Promega, Madison, WI). All cells were plated at 10,000 cells per well in growth media in a clear 96 well plate. After 3 days of compound treatment reagent was added, and absorbance at 490 nm was read after incubation for 4 hours at 37°C. A control plate of compound diluted in media at the same concentrations was treated in a similar way and these values subtracted from the cell plate data to control for any compound interference in the assay. Synergy was determined using the Bliss model of independence.
We screened pairwise combinations of monomers from our libraries in a cell proliferation assay. Increasing concentrations of each compound were dosed in an 8x6 matrix format and their effects on cell proliferation monitored. […] The majority of the combinations were additive in nature, a result consistent with the combination of the two parent ligands C01 and C02 (S1 Fig.). We identified a number of combinations that were synergistic, and representative graphs showing dose dependent inhibition of proliferation with 2 different combinations (E07+N12 and E08+N11) are shown (Fig. 2 A and B). There was no activity of the individual compounds E07, E08, N12, or N11 in the proliferation assay at concentrations up to 30 μM.
Our cell-free experiments had clearly shown that the ability for self-assembly of the dimer was important in driving the improved inhibitory effect versus the Myc protein. To test this in a cellular context we compared the effect on cell viability of the E08+N11 dimer versus its non-dimerizable control combination E08+C11. […] Similar effects on cell viability and Myc protein levels were also observed for the dimer E07+N12 but not its non-dimerizable control E07+C12 (S5 Fig.).

The target of series [2] is T3, Max:Max homodimers in complex with E-box DNA (Homo sapiens, UniProt P61244).
T3 construct: His-tagged and GST-tagged full-length human Max protein; purchased Sino Biologicals #12885-H20B
The series is described as follows: Electrophoretic mobility shift assay (EMSA), Max:Max homodimer binding to DNA. Type of series: biochemical. The settings on record: cell-free EMSA, E-box oligonucleotide. On the technique in general: Mobility shift assays separate free from complexed probe on a gel.

The target in series [3] is T4, Myc:Max heterodimers in complex with E-box DNA (Homo sapiens, UniProt P01106).
T4 construct: c-Myc residues Asn352 to Ala439; 6xHis (N); TEV cleavage site (N); purchased Cayman Chemical (Myc, custom expression); Sino Biologicals (Max) #12885-H20B (Max); host or cells: E. coli BL21StarDE3 (Myc)
The series can be described thus: Electrophoretic mobility shift assay (EMSA), Myc:Max heterodimer binding to DNA. Type of series: biochemical. The settings on record: cell-free EMSA, E-box oligonucleotide. How it is done: Human c-Myc (NP_002458.2) containing the bHLH-LZ domain was cloned into a modified pET21a vector and then transformed into the BL21StarDE3 expression system, expressed, and purified at Cayman Chemical. The construct consists of an N-terminal 6xHis tag with a TEV cleavage site, c-Myc residues Asn352 to Ala439, and a GGCD C-terminal extension (molecular weight 12.9 kDa). Compounds were added to 200 ng c-Myc in reaction buffer (100 mM KCL, 1 mM DTT, 1 mM EDTA, 50 mM Tris pH7.4, 5mM MgCl2, 0.002% NP40) and incubated for 60 minutes at room temperature. […] Finally, annealed double-stranded E-box containing DNA oligonucleotide with sequence 5’-[…]-3’ was added to a final concentration of 100 nM for twenty minutes incubation at room temperature. The final concentration of DMSO was kept constant at 2%. The protein-DNA complexes (final volume 10 μl) were resolved on NativePAGE Novex 4–16% Bis-Tris Protein Gels (Life technologies, #BN1002BOX) at 4°C with pre-chilled TBE (89 mM Tris-borate, 1 mM EDTA) at 125V for 90 minutes. SYBR Green EMSA Nucleotide Acid gel stain (Molecular Probes, #E33075) was used to stain dsDNA and DNA-protein complexes. Images were captured with an Alpha Innotech FluorChem Q imager installed with AlphaView software.
The formation of the Myc:Max heterodimer is required for its ability to bind to DNA sequences and trigger transcriptional activation of Myc-dependent genes. […]

The target of another series is Max (human, UniProt P61244 1-160). The series is described as follows: EMSA; Max:Max homodimer, no Myc; EMSA: 100 mM KCl, 1 mM DTT, 1 mM EDTA, 50 mM Tris pH 7.4, 5 mM MgCl2, 0.002% NP40, 2% DMSO, room temperature; 200 ng Myc, 350 ng Max, 100 nM DNA, 10 ul; gel run in TBE at 4 C. The settings on record: protein: commercial; tags: His and GST; chain copies: 2; label: none (SYBR Green stain); (only one strand given).
Chain of Max (P61244 whole entry): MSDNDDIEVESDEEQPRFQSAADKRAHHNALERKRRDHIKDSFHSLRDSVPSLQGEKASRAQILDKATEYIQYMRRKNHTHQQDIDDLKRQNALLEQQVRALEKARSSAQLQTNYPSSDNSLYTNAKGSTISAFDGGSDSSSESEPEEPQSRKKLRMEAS

T1 sequence (P01106 whole entry): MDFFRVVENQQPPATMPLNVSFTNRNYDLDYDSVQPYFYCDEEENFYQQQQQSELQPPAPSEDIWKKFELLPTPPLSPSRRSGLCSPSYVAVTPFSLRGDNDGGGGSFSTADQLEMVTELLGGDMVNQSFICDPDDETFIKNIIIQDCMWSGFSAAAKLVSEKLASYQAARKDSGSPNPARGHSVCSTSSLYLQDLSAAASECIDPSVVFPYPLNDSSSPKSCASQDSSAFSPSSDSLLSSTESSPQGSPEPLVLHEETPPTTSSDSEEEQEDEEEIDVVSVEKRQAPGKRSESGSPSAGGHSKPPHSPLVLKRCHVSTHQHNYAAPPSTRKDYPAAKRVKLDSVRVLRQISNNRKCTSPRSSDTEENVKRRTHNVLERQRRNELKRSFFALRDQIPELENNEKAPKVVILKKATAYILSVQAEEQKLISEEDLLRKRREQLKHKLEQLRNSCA
T2 sequence (P01106 368-454): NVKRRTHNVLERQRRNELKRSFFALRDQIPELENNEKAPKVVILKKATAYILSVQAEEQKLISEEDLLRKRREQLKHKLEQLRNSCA
T4 sequence (P01106 with tags, fused parts or gaps): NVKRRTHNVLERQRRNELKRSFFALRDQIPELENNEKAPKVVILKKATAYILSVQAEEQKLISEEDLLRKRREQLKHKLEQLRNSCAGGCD

In general, IC50 refers to the point on the concentration scale where inhibition reaches its midpoint. What is called Kd is a measure of binding affinity in units of concentration. As to `CCc1ccc(/C=C2\SC(=O)N(CCNC(=O)[C@@H]3C[C@@H]4C[C@H]3[C@@H](O)[C@H]4O)C2=O)cc1` [N11], on Myc:Max interaction, the concentration for half-maximal inhibition (IC50) is greater than 30 µM. Moreover, in series [1], the Kd was greater than 50 µM. The “activity of the individual compounds in the proliferation assay” value (“activity of the individual compounds” below) with Daudi cells is reported as “no activity”.
With `CCc1ccc(/C=C2\SC(=O)NC2=O)cc1` [C01, reference compound], the half-maximal inhibitory concentration (IC50) on Myc:Max interaction is greater than 30 µM.
Consider `O=C(NCc1ccc(B(O)O)cc1)c1ccccc1Nc1ccc([N+](=O)[O-])c2nonc12` [E08], for which the IC50 at Myc:Max interaction is greater than 30 µM. For the same molecule, the Kd in series [1] is 47 ± 9 µM. The “activity of the individual compounds” value with Daudi cells was “no activity”.
Turning to `CCc1ccc(/C=C2\SC(=O)N(CC[C@@H]3C[C@@H]4C=C[C@H]3C4)C2=O)cc1` [C12], the IC50 on Myc:Max interaction is greater than 30 µM. Besides, the Kd in series [1] is greater than 50 µM.
The matching figures for `CCc1ccc(/C=C2\SC(=O)N(CCNC(=O)[C@@H]3C[C@H]4C=C[C@H]3C4)C2=O)cc1` [C11]: greater than 30 µM and greater than 50 µM.
For `CCc1ccc(/C=C2\SC(=O)N(CC[C@@H]3C[C@H]4C[C@@H]3[C@H](O)[C@@H]4O)C2=O)cc1` [N12], the “effect on Max:Max complex binding to DNA (gel mobility shift)” value in series [2] is reported as “Neither of the two monomers, E07 or N12, had any noticeable effect”. Besides, in series [3], the “effect on Myc:Max complex binding to DNA (gel mobility shift)” value is “Neither of the two monomers, E07 or N12, had any noticeable effect”. In addition, the IC50 on Myc:Max interaction was greater than 30 µM. Besides, the dissociation constant Kd in series [1] is greater than 50 µM. Further, the “activity of the individual compounds” value in the series on Daudi cells is reported as “no activity”.
Turning to `O=C(NCc1cccc(B(O)O)c1)c1ccccc1Nc1ccc([N+](=O)[O-])c2nonc12` [E07], the “effect on Max:Max complex binding to DNA (gel mobility shift)” value in series [2] was “Neither of the two monomers, E07 or N12, had any noticeable effect”. In addition, the “effect on Myc:Max complex binding to DNA (gel mobility shift)” value in series [3] is recorded as “Neither of the two monomers, E07 or N12, had any noticeable effect”. At Myc:Max interaction, the 50% inhibitory concentration (IC50) was 24 ± 7.4 µM. Also, the Kd in series [1] came out at 42 ± 10 µM. Further, in the series on Daudi cells, the “activity of the individual compounds” value was “no activity”.
As for `NC(=O)c1ccccc1Nc1ccc([N+](=O)[O-])c2nonc12` [C02, 2-((7-Nitrobenzo[c][1,2,5]oxadiazol-4-yl)amino)benzamide, reference compound], at Myc:Max interaction, the IC50 was greater than 30 µM.

B1: E-box oligonucleotide (dsDNA)
DNA 1: GATCAGTTGACCACGTGGTCTGGG
DNA 2: CCCAGACCACGTGGTCAACTGATC
As to B1, in the series with Max, the binding result was “binds”.
